Data: patent US10555919B2, “Melatonin in autoimmune disease” (The Brigham and Women's Hopsital, Inc., priority 2014, dated 2020)
“Also recorded” adds a separate entry of the source.

How the values were obtained:
[1] = test system: Splenocytes; assay: Recall response to MOG35-55 of splenocytes from melatonin-treated mice; assay type: in vivo
Experimental: Secreted cytokines were measured in tissue culture supernatants after 72-96 hs by enzyme-linked immunosorbent assay as previously described (Farez et al., 2009). […] The cells were pulsed with [3H]thymidine (1 μCi/well) for the final 24 h. The frequency of T cells producing IL-17 (eBioscience), IFN-γ (BioLegend) or IL-10 (BD Pharmingen) and Foxp3+ T cells (eBioscience) was assessed by flow cytometry. For CFSE-based proliferation assay, CD4+ T cells were labeled with 1 μM CFSE (carboxyfluorescein diacetate succinimidyl ester; Molecular Probes). Data were acquired on an […] (BD Biosciences) or MacsQuants (Miltenyi) and analyzed with FlowJo software (TreeStar). To further characterize the effects of melatonin on the encephalitogenic T-cell response, we analyzed the recall response to MOG35-55. […] Thus, melatonin arrests the encephalitogenic Th17 cell response.

[2] = test system: ROR-α; assay: Chromatin immunoprecipitation with anti-ROR-α at the il10 promoter; assay type: cell-based, mouse; details: T-cell activation under Tr1 polarizing conditions in the presence of melatonin
Experimental: DNA-protein complexes in cells were crosslinked with 4% paraformaldehyde and lysed with 0.35 ml lysis buffer (1% SDS, 10 mM EDTA and 50 mM Tris-HCl, pH 8.1) containing 1×protease inhibitor ‘cocktail’ (Roche Molecular Biochemicals). Chromatin was sheared by sonication and supernatants collected after centrifugation were diluted in buffer (1% Triton X-100, 2 mM EDTA, 150 mM NaCl and 20 mM Tris-HCl, pH 8.1). 5 μg antibody was prebound for a minimum of 6 hs to protein A and protein G Dynal magnetic beads (Invitrogen) and samples were washed three times with ice-cold PBS containing 5% BSA, and then were added to the diluted chromatin, followed by immunoprecipitation overnight. The magnetic bead-chromatin complexes were then washed three times in radioimmunoprecipitation buffer (50 mM HEPES, pH 7.6, 1 mM EDTA, 0.7% Na deoxycholate, 1% NP-40 and 0.5 M LiCl), followed by two washes with Tris-EDTA buffer. Immunoprecipitated chromatin was then extracted with a solution of 1% SDS and 0.1 MNaHCO3 and was heated at 65° C. for at least 6 h for reversal of the paraformaldehyde cross-linking. DNA fragments were purified with a QIAquick DNA purification Kit (Qiagen) and were analyzed by SYBR Green real-time PCR (Takara Bio).

[3] = test system: murine Th17 cell differentiation; assay: In vitro mouse Th17 cell differentiation; assay type: cell-based; details: melatonin 2 ng/ml
Experimental: For intracellular cytokine staining, cells were stimulated for 4 h at 37° C. with phorbol 12-myristate 13-acetate (50 ng/ml; Sigma), ionomycin (1 μg/ml; Sigma) and monensin (GolgiStop; 1 μg/ml; BD Biosciences). After being stained for surface markers, cells were fixed and made permeable according to the manufacturer's instructions (BD Biosciences). All antibodies against cytokines were from Biolegend. All experiments were started at the same time (8-9 am). Data were collected with a LSR II or FACSAria (BD Biosciences), then were analyzed with FlowJo software (Treestar).
(§1) Naive CD4+ T cells (CD4+CD44loCD62LhiCD25−) were from the spleen and lymph node of C57BL/6 wild-type, MTNR1A−, NFIL3−, REV-ERBα, C/EBPα-deficient or RORα-deficient mice using magnetic beads (CD4+ T cell isolation kit, Miltenyi Biotec). All experiments were started between 7 and 9 am. Cells were activated with plate-bound anti-CD3 (2 μg/ml; 14-0031-86; eBioscience) and anti-CD28 (2 μg/ml; 16-0281-86; eBioscience). Mouse IL-27 (30 ng/ml; 34-8271; Biolegend) was added for the generation of Tr1 cells. IL-6 (30 ng/ml; 406-ML-025; R&D Systems), TGF-β1 (15 ng/ml; 130-095-067; Miltenyi Biotec), anti-IL-4 (2.5 μg/ml; C17.8; Biolegend) and anti-IFN-γ (5 μg/ml; XMG1.2; Biolegend) were added for the generation of Th17 cells. Recombinant mouse IL-23 (30 ng/ml; 1887-ML-010; R&D Systems) was added at day 2. For some experiments IL-6 and […] (10 ng/ml; 401-ML-025; R&D Systems) or TGF-β1 and IL-21 (100 ng/ml; 594-ML-010; R&D Systems) were used in instead for Th17 cell differentiation. IL-12 (30 ng/ml; 419-ML-010; R&D Systems) and anti-IL-4 (2.5 μg/ml; C17.8; Biolegend) were used for the generation of Th1 cells. IL-4 (30 ng/ml; 404-ML-010; R&D Systems) and anti-IFN-γ (5 μg/ml; XMG1.2; Biolegend) was added for the generation of Th2 cells. TGF-β1 (15 ng/ml; 130-095-067; Miltenyi Biotec) was used for the generation of Foxp3+ Tregs. Melatonin (Gador, Argentina), Agomelatin, and CGP-52608 (Sigma-Aldrich) were added at the start of the cultures and at day 2, at a final concentration of 2-20 ng/ml.
Secreted cytokines were measured in tissue culture supernatants after 72-96 hs by enzyme-linked immunosorbent assay as previously described (Farez et al., 2009).

[4] = test system: human CD4+ T cells activated under Tr1 polarizing conditions; assay: In vitro human Tr1 differentiation; assay type: cell-based; details: 500 ng/ml
Description: We then studied the effects of melatonin on human CD4^+ T cells. In addition, we also analyzed the effects of agomelatine, which activates melatonin-dependent signaling (Hickie and Rogers, 2011). Based on the effects of melatonin administration on T cells during EAE, we focused our studies on human Th17 and Tr1 cells. Melatonin and agomelatine reduced the production of IL-17, RORC and IL17A expression by human CD4^+ T cells activated under Th17 polarizing conditions (FIGS. 3a-c and FIG. 8), no effect was detected on the differentiation of human Th1 cells (FIGS. 3d-f). Concomitantly, melatonin and agomelatine increased IL10 expression.

[5] = test system: Tr1 cells; assay: In vitro mouse Tr1 cell differentiation; assay type: cell-based
Experimental: as §1

[6] = during Th17 cell differentiation, 3 days

## COc1ccc2[nH]cc(CCNC(C)=O)c2c1 [Melatonin, N-Acetyl-5-methoxytryptamine]
[1]
  proliferative response to MOG35-55: diminished
[1]; recall to MOG35-55
  IFN-γ production: no significant effects
  IL-10 production: increased
  IL-17 production: reduced
[2]
  binding of ROR-α to the il10 promoter: increased
[3]; MTNR1A KO
  differentiation of MTNR1A-deficient (MTNR1A KO) Th17 cells: failed to suppress; also recorded: boosted
[3]; Th17 polarizing conditions
  expression of both ROR-α and ROR-γt: reduced
[3]; Th17 polarizing conditions, 72 hs
  expression of IL-10: increased
[3]; [6]
  expression of the ROR-γt repressor NFIL3: increase
  nr1d1 expression: suppressed
[3]; wild type, agomelatine 20 ng/ml, ramelteon 10 ng/ml, CGP 52608 20 ng/ml
  differentiation of Th17 cells (rorc, IL-17, IL-23 receptor): interfered
[4]
  IL-10 production: increased
[5]; Tr1 polarizing conditions, melatonin 2 ng/ml
  expression of IL-10 and the Tr1-associated molecules il21, ahr and cmaf: boosted
[5]; co-culture with CFSE-labeled CD4+ T cells, 48 hs
  suppressive activity of Tr1 cells in vitro: boosted
